From patent US20220125765A1, “PHARMACEUTICAL COMBINATIONS COMPRISING MEBENDAZOLE AND A STRONG OR MODERATE CYP1A2 INHIBITOR” (ZEPHAPHARM LTD, priority 2019, published 2022)
Read-outs that look alike come from different tables or passages of the source.

Experiments:
CYP2D6 = CYP2D6 (Homo sapiens, UniProt P10635); assay: Cytochrome P450 reaction phenotyping, recombinant CYP2D6 (Bactosomes)
Procedure: (§1) Incubations were also performed using control Bactosomes™ (no P450 enzymes present) to reveal any non-enzymatic degradation. Control compounds known to be metabolised specifically by each P450 isoform were included. All incubations were performed singularly for each test compound.
(§2) Incubations were also performed using control Bactosomes™ (no P450 enzymes present) to reveal any non-enzymatic degradation. Control compounds known to be metabolised specifically by each P450 isoform were included. All incubations were performed singularly for each test compound. […] The reactions were stopped by transferring an aliquot of incubate to quench solvent at the appropriate time points, in a 1:3 ratio. The termination plates were centrifuged at 3,000 rpm for 20 min at 4° C. to precipitate the protein.

CYP2B6 = target: T1, CYP2B6 (Homo sapiens, UniProt P20813); assay: Cytochrome P450 reaction phenotyping, recombinant CYP2B6 (Bactosomes)
T1 sequence (P20813 1-491): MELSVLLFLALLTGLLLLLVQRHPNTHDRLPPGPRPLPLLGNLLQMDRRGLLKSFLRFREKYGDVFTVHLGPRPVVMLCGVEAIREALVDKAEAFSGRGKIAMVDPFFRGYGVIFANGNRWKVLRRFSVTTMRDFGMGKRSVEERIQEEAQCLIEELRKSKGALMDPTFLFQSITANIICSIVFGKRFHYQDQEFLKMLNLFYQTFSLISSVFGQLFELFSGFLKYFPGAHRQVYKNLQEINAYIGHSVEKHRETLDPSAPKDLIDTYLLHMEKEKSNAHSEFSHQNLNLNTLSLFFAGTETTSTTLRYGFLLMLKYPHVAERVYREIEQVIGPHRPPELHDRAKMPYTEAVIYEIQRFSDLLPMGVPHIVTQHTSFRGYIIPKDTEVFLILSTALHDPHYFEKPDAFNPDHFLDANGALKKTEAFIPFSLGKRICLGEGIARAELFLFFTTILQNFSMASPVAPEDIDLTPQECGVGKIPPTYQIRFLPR
Procedure: as §1, §2

NBXF SHEP = assay: 2D monolayer CellTiter-Blue viability, neuroblastoma SHEP; type: cell-based; settings: 72 h
Procedure: (§3) Seventeen compounds, including mebendazole (Batch no. […] Efficacy of compounds was assessed using CellTiter-Blue® Cell Viability Assay. Anti-tumor activity is expressed as absolute and relative IC50 and IC70 values, calculated by non-linear regression analysis.

NBXF CHP-212 = assay: 2D monolayer CellTiter-Blue viability, neuroblastoma CHP-212; type: cell-based; settings: 72 h
Procedure: as §3

SXFS U-2197 = assay: 2D monolayer CellTiter-Blue viability, soft tissue sarcoma U-2197; type: cell-based; settings: 72 h
Procedure: as §3

NBXF IMR-32 = assay: 2D monolayer CellTiter-Blue viability, neuroblastoma IMR-32; type: cell-based; settings: 72 h
Procedure: as §3

[1] = tested on: 8 neuroblastoma and 13 sarcoma derived cell lines; assay: 2D monolayer CellTiter-Blue viability, panel geometric mean (Example 9); type: cell-based; settings: 21 cell lines, 72 hours
Procedure: as §3

OVCAR-3 = assay: 2D monolayer CellTiter-Blue viability, ovarian cancer OVCAR-3; type: cell-based; settings: for IC50: Homo sapiens; for Test/Control (%) at Drug Concentration: 72 h
Procedure: (§4) Mebendazole was tested in vitro across a panel of 12 tumor cell lines of ovarian and renal cancer by using a 2D monolayer assay. […] OVXF 899L and RXF 486L are P-gp expressing, multidrug resistant cell lines.
(§5) Anti-tumor activity is expressed as absolute and relative IC50/70 values, calculated by 4-parameter non-linear curve fit.

RXF 1183L = assay: 2D monolayer CellTiter-Blue viability, renal cancer RXF 1183L; type: cell-based; settings: for Test/Control (%) at Drug Concentration: 72 h
Procedure: as §4, §5

CYP2D6, sequence (P10635 whole entry, canonical isoform): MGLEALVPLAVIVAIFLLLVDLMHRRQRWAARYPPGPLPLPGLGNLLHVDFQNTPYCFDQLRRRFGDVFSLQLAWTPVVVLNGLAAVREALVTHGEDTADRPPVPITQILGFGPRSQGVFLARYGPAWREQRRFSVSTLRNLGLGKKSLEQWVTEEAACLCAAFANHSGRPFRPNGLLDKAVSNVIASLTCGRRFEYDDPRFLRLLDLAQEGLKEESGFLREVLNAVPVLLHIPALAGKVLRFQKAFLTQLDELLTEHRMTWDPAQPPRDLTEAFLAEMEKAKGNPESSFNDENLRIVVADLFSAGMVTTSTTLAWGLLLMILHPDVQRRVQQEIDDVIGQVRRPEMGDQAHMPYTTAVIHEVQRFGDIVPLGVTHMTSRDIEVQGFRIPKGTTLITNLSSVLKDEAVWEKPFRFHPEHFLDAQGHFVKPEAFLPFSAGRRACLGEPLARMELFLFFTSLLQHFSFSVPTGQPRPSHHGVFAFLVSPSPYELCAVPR

COC(=O)Nc1nc2ccc(C(=O)c3ccccc3)cc2[nH]1 [Mebendazole, methyl N-(6-benzoyl-1H-benzimidazol-2-yl)carbamate]
Compound Remaining (% of 0 min) (CYP2D6; CYP2D6, 5 μM, 0 min): 100 % of 0 min
Compound Remaining (% of 0 min) (CYP2D6; CYP2D6, 5 μM, 5 min): 93.6 % of 0 min
Compound Remaining (% of 0 min) (CYP2D6; CYP2D6, 5 μM, 15 min): 93.3 % of 0 min
Compound Remaining (% of 0 min) (CYP2D6; CYP2D6, 5 μM, 30 min): 94.6 % of 0 min
Compound Remaining (% of 0 min) (CYP2D6; CYP2D6, 5 μM, 45 min): 90.4 % of 0 min
% compound remaining (CYP2D6; CYP2D6, 5 μM, time not stated): > 87.5%
t1/2 (CYP2D6; CYP2D6, substrate 5 μM): >2.25 h
half-life at 5 μM (CYP2D6; human, recombinant CYP2D6 (Bactosomes), pH 7.4): > 2.25 h
Compound Remaining (% of 0 min) (CYP2B6; CYP2B6, 5 μM, 0 min): 100 % of 0 min
Compound Remaining (% of 0 min) (CYP2B6; CYP2B6, 5 μM, 5 min): 117 % of 0 min
Compound Remaining (% of 0 min) (CYP2B6; CYP2B6, 5 μM, 15 min): 108 % of 0 min
Compound Remaining (% of 0 min) (CYP2B6; CYP2B6, 5 μM, 30 min): 112 % of 0 min
Compound Remaining (% of 0 min) (CYP2B6; CYP2B6, 5 μM, 45 min): 113 % of 0 min
% compound remaining (CYP2B6; CYP2B6, 5 μM, time not stated): > 87.5%
t1/2 (CYP2B6; CYP2B6, substrate 5 μM): >2.25 h
half-life at 5 μM (CYP2B6; human, recombinant CYP2B6 (Bactosomes), pH 7.4): > 2.25 h
Test/Control (%) at Drug Concentration (NBXF SHEP; 1.0E+00 μM): 20%
Test/Control (%) at Drug Concentration (NBXF SHEP; 1.0E+01 μM): 20%
Test/Control (%) at Drug Concentration (NBXF SHEP; 1.0E+02 μM): 16%
Test/Control (%) at Drug Concentration (NBXF SHEP; 1.0E−01 μM): 72%
Test/Control (%) at Drug Concentration (NBXF SHEP; 1.0E−02 μM): 72%
Test/Control (%) at Drug Concentration (NBXF SHEP; 3.2E+00 μM): 27%
Test/Control (%) at Drug Concentration (NBXF SHEP; 3.2E+01 μM): 18%
Test/Control (%) at Drug Concentration (NBXF SHEP; 3.2E−01 μM): 47%
Test/Control (%) at Drug Concentration (NBXF SHEP; 3.2E−02 μM): 68%
Test/Control (%) at Drug Concentration (NBXF SHEP; 3.2E−03 μM): 72%
Test/Control (%) at Drug Concentration (NBXF CHP-212; CHP-212, 1.0E+00 μM): 14%
Test/Control (%) at Drug Concentration (NBXF CHP-212; CHP-212, 1.0E+01 μM): 23%
Test/Control (%) at Drug Concentration (NBXF CHP-212; CHP-212, 1.0E+02 μM): 19%
Test/Control (%) at Drug Concentration (NBXF CHP-212; CHP-212, 1.0E−01 μM): 59%
Test/Control (%) at Drug Concentration (NBXF CHP-212; CHP-212, 1.0E−02 μM): 98%
Test/Control (%) at Drug Concentration (NBXF CHP-212; CHP-212, 3.2E+00 μM): 20%
Test/Control (%) at Drug Concentration (NBXF CHP-212; CHP-212, 3.2E+01 μM): 27%
Test/Control (%) at Drug Concentration (NBXF CHP-212; CHP-212, 3.2E−01 μM): 19%
Test/Control (%) at Drug Concentration (NBXF CHP-212; CHP-212, 3.2E−02 μM): 88%
Test/Control (%) at Drug Concentration (NBXF CHP-212; CHP-212, 3.2E−03 μM): 95%
Test/Control (%) at Drug Concentration (SXFS U-2197; U-2197, 1.0E+00 μM): 42%
Test/Control (%) at Drug Concentration (SXFS U-2197; U-2197, 1.0E+01 μM): 37%
Test/Control (%) at Drug Concentration (SXFS U-2197; U-2197, 1.0E+02 μM): 18%
Test/Control (%) at Drug Concentration (SXFS U-2197; U-2197, 1.0E−01 μM): 91%
Test/Control (%) at Drug Concentration (SXFS U-2197; U-2197, 1.0E−02 μM): 93%
Test/Control (%) at Drug Concentration (SXFS U-2197; U-2197, 3.2E+00 μM): 44%
Test/Control (%) at Drug Concentration (SXFS U-2197; U-2197, 3.2E+01 μM): 36%
Test/Control (%) at Drug Concentration (SXFS U-2197; U-2197, 3.2E−01 μM): 79%
Test/Control (%) at Drug Concentration (SXFS U-2197; U-2197, 3.2E−02 μM): 93%
Test/Control (%) at Drug Concentration (SXFS U-2197; U-2197, 3.2E−03 μM): 93%
Test/Control (%) at Drug Concentration (NBXF IMR-32; IMR-32, 1.0E+00 μM): 1%
Test/Control (%) at Drug Concentration (NBXF IMR-32; IMR-32, 1.0E+01 μM): 0%
Test/Control (%) at Drug Concentration (NBXF IMR-32; IMR-32, 1.0E+02 μM): −2%
Test/Control (%) at Drug Concentration (NBXF IMR-32; IMR-32, 1.0E−01 μM): 81%
Test/Control (%) at Drug Concentration (NBXF IMR-32; IMR-32, 1.0E−02 μM): 95%
Test/Control (%) at Drug Concentration (NBXF IMR-32; IMR-32, 3.2E+00 μM): 1%
Test/Control (%) at Drug Concentration (NBXF IMR-32; IMR-32, 3.2E+01 μM): −1%
Test/Control (%) at Drug Concentration (NBXF IMR-32; IMR-32, 3.2E−01 μM): 10%
Test/Control (%) at Drug Concentration (NBXF IMR-32; IMR-32, 3.2E−02 μM): 94%
Test/Control (%) at Drug Concentration (NBXF IMR-32; IMR-32, 3.2E−03 μM): 97%
IC50 ([1]; read-out: absolute geometric mean IC50): 291 nM
IC50 ([1]; read-out: relative geometric mean IC50): 280 nM
IC50 (OVCAR-3; OVCAR-3, 72 h, read-out: Abs. IC50): 426 nM
IC50 (OVCAR-3; OVCAR-3, 72 h, read-out: Rel. IC50): 362 nM
Test/Control (%) at Drug Concentration (OVCAR-3; OVCAR-3, 1.0E+00 μM): 27%
Test/Control (%) at Drug Concentration (OVCAR-3; OVCAR-3, 1.0E−01 μM): 95%
Test/Control (%) at Drug Concentration (OVCAR-3; OVCAR-3, 1.0E−02 μM): 97%
Test/Control (%) at Drug Concentration (OVCAR-3; OVCAR-3, 1.0E−03 μM): 89%
Test/Control (%) at Drug Concentration (OVCAR-3; OVCAR-3, 1.0E−04 μM): 97%
Test/Control (%) at Drug Concentration (OVCAR-3; OVCAR-3, 3.2E+00 μM): 26%
Test/Control (%) at Drug Concentration (OVCAR-3; OVCAR-3, 3.2E−01 μM): 69%
Test/Control (%) at Drug Concentration (OVCAR-3; OVCAR-3, 3.2E−02 μM): 90%
Test/Control (%) at Drug Concentration (OVCAR-3; OVCAR-3, 3.2E−03 μM): 93%
Test/Control (%) at Drug Concentration (OVCAR-3; OVCAR-3, 3.2E−04 μM): 103%
Abs. IC70 (OVCAR-3; OVCAR-3, 72 h): 749 nM
Rel. IC70 (OVCAR-3; OVCAR-3, 72 h): 447 nM
Bot. (%) (OVCAR-3; OVCAR-3, 72 h, curve fit): 26%
Top (%) (OVCAR-3; OVCAR-3, 72 h, curve fit): 95%
Test/Control (%) at Drug Concentration (RXF 1183L; RXF 1183, 1.0E+00 μM): 54%
Test/Control (%) at Drug Concentration (RXF 1183L; RXF 1183, 1.0E−01 μM): 79%
Test/Control (%) at Drug Concentration (RXF 1183L; RXF 1183, 1.0E−02 μM): 91%
Test/Control (%) at Drug Concentration (RXF 1183L; RXF 1183, 1.0E−03 μM): 93%
Test/Control (%) at Drug Concentration (RXF 1183L; RXF 1183, 1.0E−04 μM): 91%
Test/Control (%) at Drug Concentration (RXF 1183L; RXF 1183, 3.2E+00 μM): 32%
Test/Control (%) at Drug Concentration (RXF 1183L; RXF 1183, 3.2E−01 μM): 58%
Test/Control (%) at Drug Concentration (RXF 1183L; RXF 1183, 3.2E−02 μM): 80%
Test/Control (%) at Drug Concentration (RXF 1183L; RXF 1183, 3.2E−03 μM): 88%
Test/Control (%) at Drug Concentration (RXF 1183L; RXF 1183, 3.2E−04 μM): 88%
Abs. IC70 (RXF 1183L; RXF 1183, 72 h): >3200 nM
Rel. IC70 (RXF 1183L; RXF 1183, 72 h): >3200 nM
Bot. (%) (RXF 1183L; RXF 1183, 72 h, curve fit): 0%
Top (%) (RXF 1183L; RXF 1183, 72 h, curve fit): 91%
IC50 (RXF 1183L; RXF 1183, 72 h, read-out: Abs. IC50): 925 nM
IC50 (RXF 1183L; RXF 1183, 72 h, read-out: Rel. IC50): 1310 nM
